Reference: ChEMBL document CHEMBL5209564, “Superclomeleon biosensor based assay for SLC12A3 using HEK-293 SLC12A3 OE cells” (2022)

Target: T1, Solute carrier family 12 member 3 (Homo sapiens) (UniProt P55017)
T1 sequence (whole entry): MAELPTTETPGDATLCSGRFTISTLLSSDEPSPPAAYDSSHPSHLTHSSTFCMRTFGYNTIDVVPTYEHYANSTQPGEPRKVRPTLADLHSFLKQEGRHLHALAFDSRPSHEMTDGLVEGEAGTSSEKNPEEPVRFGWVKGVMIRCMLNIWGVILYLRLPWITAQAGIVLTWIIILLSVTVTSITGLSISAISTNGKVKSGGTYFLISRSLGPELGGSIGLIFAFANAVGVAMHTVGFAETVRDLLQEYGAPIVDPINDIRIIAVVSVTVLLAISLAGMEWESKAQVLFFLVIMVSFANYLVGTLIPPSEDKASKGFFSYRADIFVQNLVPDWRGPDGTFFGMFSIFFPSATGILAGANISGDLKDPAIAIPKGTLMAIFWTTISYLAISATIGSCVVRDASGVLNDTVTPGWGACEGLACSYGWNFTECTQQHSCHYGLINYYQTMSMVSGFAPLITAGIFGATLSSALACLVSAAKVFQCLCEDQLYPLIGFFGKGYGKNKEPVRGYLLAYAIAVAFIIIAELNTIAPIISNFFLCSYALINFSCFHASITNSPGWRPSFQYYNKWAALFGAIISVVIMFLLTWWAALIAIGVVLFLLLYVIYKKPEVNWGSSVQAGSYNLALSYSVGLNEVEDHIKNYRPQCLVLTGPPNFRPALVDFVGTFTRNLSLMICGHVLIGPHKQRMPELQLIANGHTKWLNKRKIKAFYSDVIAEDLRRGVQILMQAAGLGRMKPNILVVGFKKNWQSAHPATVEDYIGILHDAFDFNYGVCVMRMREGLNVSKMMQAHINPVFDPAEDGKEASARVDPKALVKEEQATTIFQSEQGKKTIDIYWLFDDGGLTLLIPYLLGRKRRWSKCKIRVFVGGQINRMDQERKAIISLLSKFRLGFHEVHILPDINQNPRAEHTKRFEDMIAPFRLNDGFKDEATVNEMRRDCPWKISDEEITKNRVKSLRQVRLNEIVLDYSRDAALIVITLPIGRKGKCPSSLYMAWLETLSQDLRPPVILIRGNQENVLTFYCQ
Settings: HEK293
Description: Substrate uptake by the thiazide-sensitive electroneutral NaCl co-transporter (NCC, SLC12A3) as assessed by a Cl- sensitive FRET (Fluorescence Resonance Energy Transfer) sensor (SuperClomeleon) in HEK-293 JumpIN-SLC12A3 cells (PubChem AID: 1794834)

SMILES: Cl
- proof of principle: Substrate. In Comparison To Wild-Type And Not-Induced Cells, Cells With Induced Slc12A3 Expression Showed A Specific Transporter Activity, Upon Substrate Addition, Detected As Significantly Higher Sensor Fluorescence Quenching.
